From patent US10035791B2, “Bicyclic compound and pharmaceutical composition thereof for treating stroke and use thereof” (China Medical University, priority 2016, dated 2018)

Tests used:
[1] = tested on: Bmi-1; experiment: Bmi-1 expressions in the brains of the ischemic rats, Western blot; assay type: in vivo, Sprague-Dawley (SD) rats
Text: (§1) The ischemic rats are induced by an ischemia-reperfusion model to simulate transient focal cerebral ischemia in rats. Test animals are male Sprague-Dawley (SD) rats weighing 250-300 g. The rats are anesthetized with chloral hydrate (0.4 g/kg IP) and subjected to cerebral ischemia. The ischemia-reperfusion model is induced by ligations of bilateral common carotid arteries (CCAs) and a right middle cerebral artery (MCA). The bilateral CCAs are clamped with non-traumatic arterial clips, and the right MCA is ligated with an 10-0 nylon suture. After 90 minutes ischemia, the suture on the MCA and the arterial clips on CCAs are removed to allow reperfusion. Core body temperature is monitored with a thermistor probe (Hewlett-Packard Model 21090A probe, Hewlett-Packard Company, Andover, Mass.), and maintained at 37° C. with a heating pad during anesthesia. After recovery from anesthesia, rat body temperature is maintained at 37° C. with a heat lamp.
The ischemia-reperfusion model is established as described above. The ischemic rats are injected intraperitonealy with different dosages of the Compound 1 (0.1 mg/kg, 1 mg/kg and 10 mg/kg) at 4 hours after MCA ligation for three consecutive days. Sham rats undergo same protocol with the exception of the ligation of the bilateral CCAs and the right MCA. The rats only injected a vehicle are used as the control. The ischemic rats are decapitated at 4 hours, 16 hours, 24 hours, 36 hours and 72 hours after the Compound 1 injection. The Bmi-1 expressions and the HIF-1α expressions of the ischemic rats are detected by the Western blot analysis.
The ischemic rats are further treated with 100 mg/kg of the 2-ME2 or stereotaxic injected with the LV-Bmi-1-sh or the LV-control-sh to inhibit the HIF-1α expressions and the Bmi-1 expressions, and then the ischemic rats are treated with 1 mg/kg of the Compound 1. The effect of the administration of the Compound 1 on the Bmi-1 expressions in the brains of the ischemic rats which are reduced the Bmi-1 expressions or the HIF-1α expressions are detected by the Western blot analysis.

[2] = tested on: Bmi-1; experiment: Bmi-1 expressions of the NSCs, Western blot; assay type: cell-based, mice
Experimental: (§2) To prepare the NSCs, after removal of meninges, subventricular zones (SVZ) of lateral ventricles from adult mice brain (4 week-of-age) are aseptically isolated and dissociated as previously described (J Cell Sci 2006; 119, 4467-4474). All steps are operated under sterile conditions. Then, neurosphere culture are prepared in neurobasal (NB) medium (Gibco BRL) supplemented with 2% of B27 (Gibco BRL), 2 mM of L-glutamine (PAN Biotech), 100 U/ml of penicillin/0.1 […] of streptomycin (Gibco BRL). For maintenance and expansion of the cultures, the NB/B27 is further supplemented with 2 μg/mL of heparin (Sigma), 20 ng/mL of FGF-2 (R&D Systems) and 20 ng/mL of EGF (R&D Systems). Neurosphere cultures are maintained at 37° C. in a humidified incubator with 5% CO2. For clonal/low density cultures, primary neurospheres grown at high density are dissociated into a single cell suspension and reseeded into 96-well plates at 100 cells per ml of media and the number of newly formed neurospheres is counted after 7 days. In addition, the Bmi-1 expressions, SOX2 expressions, Nestin expressions, Musashi-1 expressions, BrdU expressions and ki-67 expressions of the newly formed neurospheres are determined by the immunofluorescence staining. […]
(§3) The NSCs are exposed to the various dosages of the Compound 1 (0.1 μM, 1 μM, 10 μM and 100 μM) and cultured in the neurosphere culture. The HIF-1α expressions and the Bmi-1 expressions of the NSCs are detected by the Western blot analysis. […]
(§4) In another example, the HIF-1α expressions of the NSCs are inhibited and then 1 μM of the Compound 1 is added into the medium of the NSCs. The HIF-1α expression and the Bmi-1 expressions of the NSCs are detected by the Western blot analysis. […]
(§5) In still another example, the NSCs are exposed to 1 μM of the Compound 1 and further cultured for various lengths of time (0.5 hour, 1 hour, 4 hours, 8 hours, 16 hours and 24 hours). The HIF-1α expressions and the Bmi-1 expressions of the NSCs are detected by the Western blot analysis. […]

[3] = tested on: ischemic rats; experiment: Volume of the infarction after cerebral ischemia, magnetic resonance imaging (MRI); assay type: in vivo, Sprague-Dawley (SD) rats
Text: as §1
Further, the ischemic rats are assigned into 5 groups, 4 test groups and 1 control group. The ischemic rats of the test groups are injected with 1 mg/kg of the Compound 1, 30 mg/kg of the genipin, 1 mg/kg of the Compound 1 and 100 mg/kg of 2-ME2, and 1 mg/kg of the Compound 1 and the LV-Bmi-1-sh, respectively. The ischemic rats of the control group are injected with the vehicle. At 7 days after the injection, the ischemic rats of the different groups are anesthetized, and the volume of the infarction thereof is assessed by a magnetic resonance imaging (MRI).

[4] = tested on: HIF-1α; experiment: HIF-1α expressions of the NSCs, Western blot; assay type: cell-based, mice
Experimental: as §2, §3, §4, §5

[5] = 1 μM, 0.5 to 24 hours tested, FIG. 10C
[6] = 0.1, 1, 10, 100 μM, normoxia (21% O2), in particular 1 μM, FIG. 10A
[7] = 1 mg/kg, 7 days after the injection, FIGS. 18A, 18B
[8] = 1 μM 2-ME2 for 16 hours, then 1 μM Compound 1, FIG. 10B

Row | Compound | treatment time with the highest Bmi-1 expression ([1]; 1 mg/kg, 4 to 72 hours after injection, FIG. 13A) | Bmi-1 expressions in the brains of the ischemic rats ([1]; 0.1, 1, 10 mg/kg intraperitoneal, vs control and sham rats, FIGS. 13A to 13C) | dosage with the highest Bmi-1 expression ([1]; 0.1, 1, 10 mg/kg tested, 36 hours, FIG. 13B) | exposure time at which the NSCs express the most Bmi-1 [2, 5] | Bmi-1 expressions of the NSCs [2, 6] | effect on the reduction of the infarction area, compared with genipin ([3]; 1 mg/kg Compound 1 vs 30 mg/kg genipin, 7 days) | area of the largest infarction (MRI) [3, 7] | volume of the infarction (MRI) [3, 7] | exposure time at which the NSCs express the most HIF-1α [4, 5] | HIF-1α expressions of the NSCs [4, 6] | increased Bmi-1 expressions by the Compound 1 treatment in brains of ischemic rats ([1]; 100 mg/kg 2-ME2 plus 1 mg/kg Compound 1, FIG. 13C) | enhancement of the Bmi-1 expressions induced by the Compound 1 in NSCs [2, 8] | Compound-1-induced reduction of the volume of the infarction (MRI) ([3]; 100 mg/kg 2-ME2 plus 1 mg/kg Compound 1, 7 days) | enhancement of the HIF-1α expressions induced by the Compound 1 in NSCs [4, 8]
1 | COC(=O)C1=CO[C@@H](O)[C@@H]2C(COC(=O)[C@@H](N)Cc3ccccc3)=CC[C@H]12 [Compound 1] | 36 h | significantly increases | 1 mg/kg | 16 h | increased | better than that of the genipin | significantly reduced | significantly reduced | 0.5 h | increased |  |  |  | 
2 | COc1cc2c(cc1O)CC[C@@H]1[C@@H]2CC[C@]2(C)[C@@H](O)CC[C@@H]12 [Compound 2-ME2, 2-Methoxyestradiol, reference compound] |  |  |  |  |  |  |  |  |  |  | inhibited | abolished | abolishes | abolished
